Key:
Assay type in all cases: cell-based, human
[1] = system: CDC25A protein levels; experiment: Western blotting of CDC25A protein levels in A2058 cells; conditions: A2058, 100 μM, 2-16 h
Description: To better investigate the effect of this inhibitor at the molecular level, we evaluated if the treatment of A2058 cells with 7 affected also the protein levels of the three CDC25 forms. […] On the other hand, the protein levels of CDC25B were unaffected by treatment of A2058 cells with 7 up to 16 h.
A2058 cells were seeded into 6-well-plates (3 × 10^5 cells/plate) for 24 h at 37°C and then treated at different times with 100 μM compound 7 or 0.5% DMSO. After treatment, cells were harvested, washed with PBS and then lysed in ice-cold modified radio immunoprecipitation assay (RIPA) buffer (50 mM Tris-HCl, pH 7.4, 150 mM NaCl, 1% Nonidet P-40, 0.25% sodium deoxycholate, 1 mM Na3VO4 and 1 mM NaF), supplemented with protease inhibitors and incubated for 30 min on ice. The supernatant obtained after centrifugation at 12,000 rpm for 30 min at 4°C constituted the total protein extract. The protein concentration was determined by the method of Bradford, using bovine serum albumin (BSA) as standard. Equal amounts of total protein extracts were used for Western blot analysis. […] Membranes were then analysed by an enhanced chemiluminescence reaction, using Super Signal West Pico kit (Pierce) according to manufacturer's instruction; signals were visualized by autoradiography.

[2] = system: caspase-3 activity; experiment: Caspase-3 enzymatic activity in A2058 cells; conditions: A2058, 100 μM
Text: (§1) PI incorporation followed by flow cytometric analysis was used to detect the effect of 7 on the number of nuclei with a sub-diploid content, a typical hallmark of apoptosis. A time-dependent increase of apoptosis was evident in both A2058 and SAN cells and in particular, the effect of 7 on cell death program was already evident after 24-h treatment (Figure 7). […] To further investigate on the capacity of 7 to induce apoptosis, the enzymatic activity of caspase-3, the final effector of apoptotic program, was monitored.
(§2) To estimate caspase-3 and caspase-9 activity during the treatment with compound 7, the respective enzymatic activities were measured by using caspase-3 and -9 fluorimetric assay kits, according to the manufacturer's protocol, essentially as previously described. Briefly, cells were seeded into 75 cm^2 plates (2 × 10^6 cells/plate) for 24 h at 37°C and then treated with 100 μM 7 or 0.5% DMSO. At the end of each incubation, cells were collected, washed with PBS, and finally lysed at 4°C in the cell lysis buffer. Cell lysates were incubated with 50 μM DEVD-AFC or LEHD-AFC substrates at 37°C for 2 h, to detect caspase-3 or caspase-9 activity, respectively, using a Cary Eclipse fluorescence spectrophotometer (Varian). Excitation and emission wavelengths were set at 400 nm and 505 nm, respectively; both excitation and emission slits were set at 10 nm.

[3] = system: caspase-3 activity; experiment: Caspase-3 enzymatic activity in SAN cells; conditions: 100 μM
Text: as §1, §2

[4] = system: Bcl-2 and Bax protein levels; experiment: Western blotting of Bcl-2 and Bax protein levels in A2058 cells; conditions: A2058, 100 μM
Description: (§3) Mitochondria represent the primary source of ROS, as well the target of ROS action, and therefore, compound 7 could affect their functionality in melanoma cells. […] Proteins belonging to the B-cell lymphoma-2 (Bcl-2) family are involved in the modulation of the mitochondrial functionality. Therefore, we have evaluated the levels of the anti-apoptotic protein Bcl-2, as well as that of the pro-apoptotic Bcl-2-associated X protein (Bax), after incubation with 7 (Figure 10B). […] To further investigate the occurrence of a mitochondrial-mediated apoptosis induced by 7, the caspase-9 activity was assayed. […] The effect of compound 7 was investigated also in SAN cells and the overall results were similar to those observed in A2058 (Supplementary Figure S6).
A2058 cells were seeded into 6-well-plates (3 × 10^5 cells/plate) for 24 h at 37°C and then treated at different times with 100 μM compound 7 or 0.5% DMSO. After treatment, cells were harvested, washed with PBS and then lysed in ice-cold modified radio immunoprecipitation assay (RIPA) buffer (50 mM Tris-HCl, pH 7.4, 150 mM NaCl, 1% Nonidet P-40, 0.25% sodium deoxycholate, 1 mM Na3VO4 and 1 mM NaF), supplemented with protease inhibitors and incubated for 30 min on ice. The supernatant obtained after centrifugation at 12,000 rpm for 30 min at 4°C constituted the total protein extract. The protein concentration was determined by the method of Bradford, using bovine serum albumin (BSA) as standard. Equal amounts of total protein extracts were used for Western blot analysis. […] The filter was incubated with the specific primary antibody at 4°C overnight and then with the secondary antibody at room temperature for 1 h. Membranes were then analysed by an enhanced chemiluminescence reaction, using Super Signal West Pico kit (Pierce) according to manufacturer's instruction; signals were visualized by autoradiography.

[5] = system: Bcl-2 and Bax protein levels; experiment: Western blotting of Bcl-2 and Bax protein levels in SAN cells; conditions: 100 μM, 8 or 16 h
Description: Mitochondria represent the primary source of ROS, as well the target of ROS action, and therefore, compound 7 could affect their functionality in melanoma cells. […] Proteins belonging to the B-cell lymphoma-2 (Bcl-2) family are involved in the modulation of the mitochondrial functionality. Therefore, we have evaluated the levels of the anti-apoptotic protein Bcl-2, as well as that of the pro-apoptotic Bcl-2-associated X protein (Bax), after incubation with 7 (Figure 10B). […] To further investigate the occurrence of a mitochondrial-mediated apoptosis induced by 7, the caspase-9 activity was assayed. […]
(§4) A2058 cells were seeded into 6-well-plates (3 × 10^5 cells/plate) for 24 h at 37°C and then treated at different times with 100 μM compound 7 or 0.5% DMSO. […] The protein concentration was determined by the method of Bradford, using bovine serum albumin (BSA) as standard. […] Membranes were then analysed by an enhanced chemiluminescence reaction, using Super Signal West Pico kit (Pierce) according to manufacturer's instruction; signals were visualized by autoradiography.
Supplementary Figure S6: Effect of compound 7 on some apoptotic mitochondrial markers in SAN cells. […] Total protein extracts from SAN cells, incubated with 0.5% DMSO or 100 μM compound 7 for 8 or 16 h,were analyzed by Western blotting. […]

[6] = system: caspase-9 activity; experiment: Caspase-9 enzymatic activity in A2058 cells; conditions: A2058, 100 μM, 24 h
Description: as §3
as §2, with “At the end of each incubation, cells were collected, washed with PBS, and finally lysed at 4°C in the cell lysis buffer.” left out, “Excitation and emission wavelengths were set at 400 nm and 505 nm, respectively; both excitation and emission slits were set at 10 nm.” left out

[7] = system: pAkt protein levels; experiment: Western blotting of pAkt (Ser473) in SAN cells; conditions: 100 μM, 1 or 2 h
Description: The molecular mechanisms that regulate the cytotoxic potential of 7 in melanoma cells were further investigated through the evaluation of the activation state of protein kinase B (pAkt), one of the key proteins involved in the control and regulation of cell survival. To this aim, the protein levels of pAkt have been analyzed after 2- and 4-h incubation of A2058 cells with 7. […] It is known that Akt regulates the process of cell survival by phosphorylating different substrates, directly or indirectly involved in the apoptotic program. One of these targets is p53, a protein with a tumor-suppressor activity that regulates the cell cycle, as well as the expression of several genes involved in the apoptosis. […]
as §4, with “autoradiography. […]” for “autoradiography.”
0.5% DMSO or 100 μM compound 7 for 1 or 2 h, were analyzed by Western blotting using an antibody raised against pAkt (Ser473). […]

O=C(O)C1CCCCC1c1c2ccc(=O)cc-2oc2cc(O)ccc12 (stereo not shown) [Compound 7, 2-(6-hydroxy-3-oxo-3H-xanthen-9-yl)cyclohexanecarboxylic acid]
CDC25A protein levels [1]: early reduction of the CDC25A protein levels up to 4 h
caspase-3 enzymatic activity [2]: significant increase of the enzymatic activity of caspase-3
caspase-3 enzymatic activity [3]: significant increase of the enzymatic activity of caspase-3
Bcl-2/Bax ratio ([4]; 8 and 16 h): significant reduction
Bcl-2 protein level ([4]; 8 and 16 h): clear reduction of the Bcl-2 level after 8-h treatment
Bax protein level ([4]; 16 h): clear increase of Bax
Bcl-2/Bax ratio [5]: significantly decreased
Bcl-2 and Bax protein levels [5]: both levels of Bcl-2 and Bax were reduced
caspase-9 activity [6]: clear increase of caspase-9 activity
Akt activation (pAkt) [7]: early reduction of Akt activation
